Assays:
B. subtilis 168 [1] = assay: fitness (endpoint OD595 vs no drug) (fraction); higher = more growth
Outline: (§1)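 Plates with 384 wells were inoculated at OD595 0.01 using 30 µl of TSB, LB Lennox or CY, or 55 µl for S. pneumoniae. Incubation was at 37 °C, with OD595 measured every 30 min for 14 h. Fitness is the stationary-phase transition optical density over the robust mean of no-drug control wells, after first-reading background subtraction; it is capped at 1.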

S. aureus DSM 20231 [2] = assay: as above
Outline: as §1

S. pneumoniae D39V = assay: Bliss interaction score (quartile over a dose matrix) (fitness difference); higher = more antagonism (negative = synergy)
Outline: (§2)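 Combination data were used to infer fitness under each single drug. Fitness is the OD595 at entry into stationary phase divided by the robust mean of the plate's no-drug wells, with a cap of 1. The Bliss score is the observed minus the expected product fitness, summarised by quartiles over technical, biological and donor/recipient replicates.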

B. subtilis 168 [3] = assay: as above
Outline: as §2

S. aureus DSM 20231 [4] = assay: as above
Outline: as §2

S. aureus Newman [5] = assay: as above
Outline: as §2

S. aureus Newman [6] = assay: fitness (endpoint OD595 vs no drug) (fraction); higher = more growth; settings: main component drawn
Outline: as §1
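Wherever Bliss interaction score (quartile over a dose matrix) is given: first quartile when negative (synergy) and third quartile when positive (antagonism).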

C[C@@H]1O[C@@H]1P(=O)(O)O [Fosfomycin] + COc1cc(Cc2cnc(N)nc2N)cc(OC)c1OC [Trimethoprim]
fitness, B. subtilis 168 [1], one replicate
Settings | partner 0.1 µg/mL | partner 0.2 µg/mL | partner 0.4 µg/mL | partner 1 µg/mL | partner 2 µg/mL
first compound 1.562 µg/mL | 0.649 | 0.564 | 0.397 | 0.17 | 0.119
first compound 3.124 µg/mL | 0.497 | 0.35 | 0.18 | 0.0628 | 0.0617
first compound 6.248 µg/mL | 0.209 | 0.101 | 0.0381 | 0.0277 | 0.0228

fitness
Settings | partner 0.125 µg/mL | partner 0.25 µg/mL | partner 0.5 µg/mL | partner 1 µg/mL
B. subtilis 168 [1], first compound 1.562 µg/mL | 0.572 | 0.405 | 0.35 | –
B. subtilis 168 [1], first compound 3.124 µg/mL | 0.447 | 0.369 | 0.218 | –
B. subtilis 168 [1], first compound 6.248 µg/mL | 0.307 | 0.236 | 0.0904 | –
S. aureus DSM 20231 [2], first compound 0.781 µg/mL | 0.592 | 0.56 | 0.182 | 0.0323
S. aureus DSM 20231 [2], first compound 1.562 µg/mL | 0.56 | 0.484 | 0.106 | 0.0286
S. aureus DSM 20231 [2], first compound 3.124 µg/mL | 0.499 | 0.327 | 0.0645 | 0.0282

Settings | Bliss interaction score
B. subtilis 168 [3] | -0.112
S. aureus DSM 20231 [4] | 0.0599
S. aureus Newman [5] | 0.0927
S. pneumoniae D39V | 0.158

Cc1ncc([N+](=O)[O-])n1CCO [Metronidazole] + CCCCCCCCCC(=O)N[C@@H]1[C@H]([C@@H]([C@H](O[C@H]1OC2=C3C=C4C=C2OC5=C(C=C(C=C5)[C@H]([C@H]6C(=O)N[C@@H](C7=C(C(=CC(=C7)O)OC8[C@H]([C@H]([C@@H]([C@H](O8)CO)O)O)O)C9=C(C=CC(=C9)[C@H](C(=O)N6)NC(=O)[C@@H]4NC(=O)[C@@H]1C2=CC(=CC(=C2)OC2=C(C=CC(=C2)[C@H](C(=O)N[C@H](CC2=CC(=C(O3)C=C2)Cl)C(=O)N1)N)O)O)O)C(=O)O)O[C@H]1[C@@H]([C@H]([C@@H]([C@H](O1)CO)O)O)NC(=O)C)Cl)CO)O)O [Teicoplanin]
fitness
Settings | first compound 0.625 µg/mL | first compound 0.781 µg/mL | first compound 1.25 µg/mL | first compound 1.562 µg/mL | first compound 2.5 µg/mL | first compound 3.124 µg/mL
S. aureus DSM 20231 [2], partner 0.1562 µg/mL, main component drawn | 0.967 | – | ≥ 1 | – | ≥ 1 | –
S. aureus DSM 20231 [2], partner 0.3125 µg/mL, main component drawn | ≥ 1 | – | ≥ 1 | – | ≥ 1 | –
S. aureus DSM 20231 [2], partner 0.625 µg/mL, main component drawn | ≥ 1 | – | ≥ 1 | – | ≥ 1 | –
S. aureus Newman [6], partner 0.1562 µg/mL, one replicate | – | ≥ 1 | – | ≥ 1 | – | ≥ 1
S. aureus Newman [6], partner 0.3125 µg/mL, one replicate | – | ≥ 1 | – | 0.961 | – | 0.989
S. aureus Newman [6], partner 0.62 µg/mL, one replicate | 0.82 | – | 0.795 | – | 0.81 | –
S. aureus Newman [6], partner 0.625 µg/mL, one replicate | – | 0.845 | – | 0.805 | – | 0.836
S. aureus Newman [6], partner 1.24 µg/mL, one replicate | 0.745 | – | 0.774 | – | 0.76 | –
S. aureus Newman [6], partner 2.48 µg/mL, one replicate | 0.492 | – | 0.505 | – | 0.486 | –

fitness, S. aureus Newman [6]
Settings | first compound 0.625 µg/mL | first compound 1.25 µg/mL | first compound 2.5 µg/mL
partner 0.1562 µg/mL | 0.976 | 0.979 | –
partner 0.3125 µg/mL | 0.988 | 0.973 | 0.933
partner 0.625 µg/mL | 0.927 | 0.925 | 0.752

main component drawn
Settings | Bliss interaction score
B. subtilis 168 [3] | 0.0689
S. aureus DSM 20231 [4] | 0.0308
S. aureus Newman [5] | 0.0581
S. pneumoniae D39V | 0.126

C[C@@H]1O[C@@H]1P(=O)(O)O [Fosfomycin] + CCCCCCCCCC(=O)N[C@@H]1[C@H]([C@@H]([C@H](O[C@H]1OC2=C3C=C4C=C2OC5=C(C=C(C=C5)[C@H]([C@H]6C(=O)N[C@@H](C7=C(C(=CC(=C7)O)OC8[C@H]([C@H]([C@@H]([C@H](O8)CO)O)O)O)C9=C(C=CC(=C9)[C@H](C(=O)N6)NC(=O)[C@@H]4NC(=O)[C@@H]1C2=CC(=CC(=C2)OC2=C(C=CC(=C2)[C@H](C(=O)N[C@H](CC2=CC(=C(O3)C=C2)Cl)C(=O)N1)N)O)O)O)C(=O)O)O[C@H]1[C@@H]([C@H]([C@@H]([C@H](O1)CO)O)O)NC(=O)C)Cl)CO)O)O [Teicoplanin]
fitness
Settings | first compound 0.781 µg/mL | first compound 1.562 µg/mL | first compound 3.124 µg/mL
S. aureus DSM 20231 [2], partner 0.1562 µg/mL, main component drawn | 0.863 | 0.698 | 0.538
S. aureus DSM 20231 [2], partner 0.3125 µg/mL, main component drawn | 0.968 | 0.831 | –
S. aureus DSM 20231 [2], partner 0.625 µg/mL, main component drawn | 0.933 | 0.862 | 0.654
S. aureus Newman [6], partner 0.62 µg/mL, one replicate | 0.715 | 0.682 | 0.522
S. aureus Newman [6], partner 1.24 µg/mL, one replicate | 0.646 | 0.616 | 0.472
S. aureus Newman [6], partner 2.48 µg/mL, one replicate | 0.461 | 0.234 | 0.0834

fitness, S. aureus Newman [6]
Settings | first compound 0.781 µg/mL | first compound 1.562 µg/mL | first compound 3.124 µg/mL
partner 0.1562 µg/mL | 0.58 | 0.525 | 0.127
partner 0.3125 µg/mL | 0.568 | 0.534 | 0.261
partner 0.625 µg/mL | 0.663 | 0.582 | 0.348

main component drawn
Settings | Bliss interaction score
B. subtilis 168 [3] | -0.078
S. aureus DSM 20231 [4] | 0.154
S. aureus Newman [5] | 0.177
S. pneumoniae D39V | 0.065

COc1cccc2c1C(=O)c1c(O)c3c(c(O)c1C2=O)C[C@@](O)(C(=O)CO)C[C@@H]3O[C@H]1C[C@H](N)[C@H](O)[C@H](C)O1 [Doxorubicin] + CCCCCCCCCC(=O)N[C@@H]1[C@H]([C@@H]([C@H](O[C@H]1OC2=C3C=C4C=C2OC5=C(C=C(C=C5)[C@H]([C@H]6C(=O)N[C@@H](C7=C(C(=CC(=C7)O)OC8[C@H]([C@H]([C@@H]([C@H](O8)CO)O)O)O)C9=C(C=CC(=C9)[C@H](C(=O)N6)NC(=O)[C@@H]4NC(=O)[C@@H]1C2=CC(=CC(=C2)OC2=C(C=CC(=C2)[C@H](C(=O)N[C@H](CC2=CC(=C(O3)C=C2)Cl)C(=O)N1)N)O)O)O)C(=O)O)O[C@H]1[C@@H]([C@H]([C@@H]([C@H](O1)CO)O)O)NC(=O)C)Cl)CO)O)O [Teicoplanin]
fitness
Settings | first compound 0.625 µg/mL | first compound 1.25 µg/mL | first compound 2.5 µg/mL
S. aureus DSM 20231 [2], partner 0.1562 µg/mL, main component drawn | 0.889 | 0.885 | 0.922
S. aureus DSM 20231 [2], partner 0.3125 µg/mL, main component drawn | 0.979 | 0.965 | 0.939
S. aureus DSM 20231 [2], partner 0.625 µg/mL, main component drawn | ≥ 1 | ≥ 1 | 0.978
S. aureus Newman [6], partner 0.62 µg/mL, one replicate | 0.713 | 0.736 | 0.716
S. aureus Newman [6], partner 1.24 µg/mL, one replicate | 0.666 | 0.613 | 0.622
S. aureus Newman [6], partner 2.48 µg/mL, one replicate | 0.339 | 0.283 | 0.237

fitness, S. aureus Newman [6]
Settings | first compound 0.625 µg/mL | first compound 1.25 µg/mL | first compound 2.5 µg/mL
partner 0.1562 µg/mL | 0.886 | 0.809 | 0.728
partner 0.3125 µg/mL | 0.872 | 0.808 | 0.713
partner 0.625 µg/mL | 0.841 | 0.791 | 0.677

main component drawn
Settings | Bliss interaction score
B. subtilis 168 [3] | 0.0931
S. aureus DSM 20231 [4] | 0.0684
S. aureus Newman [5] | 0.0378
S. pneumoniae D39V | 0.102
